Laboratory results as given in patent publication US9937151B2, “Carbapenem antibacterials with gram-negative activity” (priority 2010, dated 2018).
Converted amounts (≈) assume the structure as drawn.

Test system: G(−) bacterial strains
Assay: Dilution antimicrobial susceptibility tests (MIC, NCCLS agar dilution / broth dilution)
Assay type: cell-based, Gram-negative organisms
Conditions: unit assumed
Method: The MIC (minimum inhibitory concentration) was determined by the NCCLS (National Committee for Clinical Laboratory Standards) methods 2000. Methods for dilution antimicrobial susceptibility testing for bacteria that growth aerobically (M7-A5, vol. 20, No. 2). The agar dilution method for determining antimicrobial susceptibility was carried out using Mueller-Hinton agar. A final inoculum of 10^4 CFU/spot was applied with an inoculation device. Broth dilution tests were performed with 5×10^5 CFU/well in 96 well plates. The susceptibilities of streptococci were determined by Mueller-Hinton agar supplemented with 5% sheep blood. All assays were run with the indicated control strains, available from the ATCC (American Type Culture Collection, Rockville, Md.).
Abbreviations used in Table 1 are defined as follows: Cf-R: Ceftazidime Resistance, Ci-R: Ciprofloxacin Resistance, Gen-R: Gentamycin Resistance, Imp-R: Imipenem Resistance, Mp-R: Meropenem Resistance, Ofx-R: Ofloxacin Resistance, B+: β-lactamase Production, AmpC: AmpC-lactamase Hyper production, CBPase: Carbapenemase Production.

[1] = strain #1 Acinetobacter calcoaceticus
[2] = strain #2 Acinetobacter baumannii, Cf-R, Ci-R
[3] = strain #3 Acinetobacter baumannii, Cf-R, Ci-R, Mp-I
[4] = strain #4 Acinetobacter baumannii, Cf-R, Imp-I, CBPase
[5] = strain #7 Enterobacter aerogenes
[6] = strain #8 Enterobacter cloacae, Cf-R, B+
[7] = strain #9 Enterobacter cloacae, Cf-R
[8] = strain #10 Escherichia coli, Ci-R
[9] = strain #11 Escherichia coli, Ci-R, AmpC
[10] = strain #15 Klebsiella pneumoniae
[11] = strain #16 Moraxella catarrhalis
[12] = strain #21 Providencia rettgeri
[13] = strain #22 Salmonella typhimurium
[14] = strain #25 Shigella dysenteriae
[15] = strain #28 Stenotrophomonas maltophilia
[16] = strain #29 Pseudomonas aeruginosa
[17] = strain #30 Pseudomonas aeruginosa
[18] = strain #31 Pseudomonas aeruginosa, Ofx-R
[19] = strain #32 Pseudomonas aeruginosa, Cf-R
[20] = strain #33 Pseudomonas aeruginosa, Ci-R
[21] = strain #34 Pseudomonas aeruginosa, Gen-R
[22] = strain #35 Pseudomonas aeruginosa, Ip-R
[23] = strain #36 Pseudomonas aeruginosa, Cf-R, Ci-R, Mp-R

Row | Compound | MIC [1] [µg/mL] | MIC [2] [µg/mL] | MIC [3] [µg/mL] | MIC [4] [µg/mL] | MIC (strain #5 Citrobacter diversus) [µg/mL] | MIC (strain #6 Citrobacter freundii) [µg/mL] | MIC [5] [µg/mL] | MIC [6] [µg/mL] | MIC [7] [µg/mL] | MIC [8] [µg/mL] | MIC [9] [µg/mL] | MIC (strain #12 Escherichia coli) [µg/mL] | MIC (strain #13 Escherichia coli) [µg/mL] | MIC (strain #14 Klebsiella oxytoca) [µg/mL] | MIC [10] [µg/mL] | MIC [11] [µg/mL] | MIC (strain #17 Morganella Morganii) [µg/mL] | MIC (strain #18 Morganella Morganii) [µg/mL] | MIC (strain #19 Proteus vulgaris) [µg/mL] | MIC (strain #20 Proteus mirabilis) [µg/mL] | also measured
1 | C[C@@H](O)C1C(=O)N2C(C(=O)O)=C(CN3CC[C@H](C(=O)N(C)C)C3)[C@H](C)C12 (stereo partly drawn) [Compound 120] | 4 (≈ 10.9 µM) | 8 (≈ 21.9 µM) | 16 (≈ 43.8 µM) | 4 (≈ 10.9 µM) | 0.5 (≈ 1.37 µM) | 0.5 (≈ 1.37 µM) | 2 (≈ 5.47 µM) | 0.5 (≈ 1.37 µM) | 1 (≈ 2.74 µM) | 0.5 (≈ 1.37 µM) | 0.5 (≈ 1.37 µM) | 0.5 (≈ 1.37 µM) | 0.5 (≈ 1.37 µM) | 1 (≈ 2.74 µM) | 1 (≈ 2.74 µM) | 0.016 (≈ 0.0438 µM) | 8 (≈ 21.9 µM) | 4 (≈ 10.9 µM) | 4 (≈ 10.9 µM) | 0.5 (≈ 1.37 µM) | MIC [12]: 2 µg/mL (≈ 5.47 µM); MIC [13]: 0.5 µg/mL (≈ 1.37 µM); MIC (strain #23 Serratia marcescens): 1 µg/mL (≈ 2.74 µM); MIC (strain #24 Serratia marcescens): 2 µg/mL (≈ 5.47 µM); MIC [14]: 0.5 µg/mL (≈ 1.37 µM); MIC (strain #26 Shigella sonnei): 0.5 µg/mL (≈ 1.37 µM); MIC (strain #27 Shigella flexneri): 0.5 µg/mL (≈ 1.37 µM); MIC [15]: 1 µg/mL (≈ 2.74 µM); MIC [16]: 16 µg/mL (≈ 43.8 µM); MIC [17]: 16 µg/mL (≈ 43.8 µM); MIC [18]: 4 µg/mL (≈ 10.9 µM); MIC [19]: 16 µg/mL (≈ 43.8 µM); MIC [20]: 16 µg/mL (≈ 43.8 µM); MIC [21]: 16 µg/mL (≈ 43.8 µM); MIC [22]: > 32 µg/mL; MIC [23]: > 32 µg/mL
2 | CN[C@H]1CCN(CC2=C(C(=O)O)N3C(=O)C([C@@H](C)O)C3[C@H]2C)C1 (stereo partly drawn) [Compound 43] | 0.5 (≈ 1.55 µM) | 1 (≈ 3.09 µM) | 4 (≈ 12.4 µM) | 4 (≈ 12.4 µM) | 0.25 (≈ 0.773 µM) | 0.25 (≈ 0.773 µM) | 1 (≈ 3.09 µM) | 0.25 (≈ 0.773 µM) | 0.5 (≈ 1.55 µM) | 0.25 (≈ 0.773 µM) | 0.25 (≈ 0.773 µM) | 0.25 (≈ 0.773 µM) | 0.25 (≈ 0.773 µM) | 0.5 (≈ 1.55 µM) | 0.5 (≈ 1.55 µM) | ≤ 0.008 | 2 (≈ 6.18 µM) | 2 (≈ 6.18 µM) | 1 (≈ 3.09 µM) | 0.25 (≈ 0.773 µM) | MIC [12]: 1 µg/mL (≈ 3.09 µM); MIC [13]: 0.5 µg/mL (≈ 1.55 µM); MIC (strain #23 Serratia marcescens): 1 µg/mL (≈ 3.09 µM); MIC (strain #24 Serratia marcescens): 1 µg/mL (≈ 3.09 µM); MIC [14]: 0.5 µg/mL (≈ 1.55 µM); MIC (strain #26 Shigella sonnei): 0.25 µg/mL (≈ 0.773 µM); MIC (strain #27 Shigella flexneri): 0.25 µg/mL (≈ 0.773 µM); MIC [15]: 0.5 µg/mL (≈ 1.55 µM); MIC [16]: 4 µg/mL (≈ 12.4 µM); MIC [17]: 2 µg/mL (≈ 6.18 µM); MIC [18]: 1 µg/mL (≈ 3.09 µM); MIC [19]: 4 µg/mL (≈ 12.4 µM); MIC [20]: 4 µg/mL (≈ 12.4 µM); MIC [21]: 4 µg/mL (≈ 12.4 µM); MIC [22]: 8 µg/mL (≈ 24.7 µM); MIC [23]: 16 µg/mL (≈ 49.5 µM)
